Assay results: publication PMC9866861, “The More the Better—Investigation of Polymethoxylated N-Carboranyl Quinazolines as Novel Hybrid Breast Cancer Resistance Protein Inhibitors” (Pharmaceutics, 2023)
“Also recorded” adds a separate entry of the source.

Experiments:
human ABCG2 transporter = target: T1, human ABCG2 transporter (Homo sapiens, UniProt Q9UNQ0); assay: Hoechst 33342 accumulation assay (MDCKII-hABCG2 vs MDCKII-WT); type: cell-based; details: for intracellular Hoechst 33342 accumulation / inhibition of ABCG2-mediated Hoechst efflux: 0.5 and 1.0 µM compound, Ko143 1 µM, 4 h, vs solvent control; for inhibition of human ABCG2 transporter in Hoechst 33342 accumulation assay: 0.5 µM
T1 construct: expressed in transfected cells; host or cells: MDCKII (Madin-Darby canine kidney) cells transfected with human ABCG2
T1 sequence (Q9UNQ0 1-655): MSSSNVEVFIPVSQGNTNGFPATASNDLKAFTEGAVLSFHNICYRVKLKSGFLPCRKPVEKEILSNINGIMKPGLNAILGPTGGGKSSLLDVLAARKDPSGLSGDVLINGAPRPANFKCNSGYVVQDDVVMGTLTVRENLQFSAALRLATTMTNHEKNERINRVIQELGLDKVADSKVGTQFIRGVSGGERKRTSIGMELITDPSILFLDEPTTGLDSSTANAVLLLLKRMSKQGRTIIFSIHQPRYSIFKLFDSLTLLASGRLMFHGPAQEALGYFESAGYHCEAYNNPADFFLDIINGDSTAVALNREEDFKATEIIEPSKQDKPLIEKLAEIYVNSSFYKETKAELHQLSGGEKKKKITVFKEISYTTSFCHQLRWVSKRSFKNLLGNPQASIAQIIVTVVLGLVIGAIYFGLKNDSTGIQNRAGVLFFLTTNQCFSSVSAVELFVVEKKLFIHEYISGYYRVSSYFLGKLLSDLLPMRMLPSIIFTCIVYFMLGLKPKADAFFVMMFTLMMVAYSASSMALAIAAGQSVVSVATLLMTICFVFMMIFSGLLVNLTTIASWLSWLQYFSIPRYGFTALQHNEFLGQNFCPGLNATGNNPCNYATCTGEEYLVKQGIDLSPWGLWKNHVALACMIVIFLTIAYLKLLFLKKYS
Protocol: The Hoechst 33342 accumulation assay was used to detect an interaction of the investigated compounds with the human ABCG2 transporter. The assay protocol was adapted from that published by Wassermann et al.. The MDCKII-hABCG2 (2 × 10^4 cells/mL) and MDCKII-WT (3 × 10^4 cells/mL) cells were seeded in 96-well plates and cultured for 72 h. Afterwards, the sub-confluent monolayers were treated with 0.5 µM and 1.0 µM of the investigational compounds or its respective solvent control (0.1% DMSO) for 4 h. […] After 5 and 20 min, the cells were washed twice with ice-cold PBS buffer solution and lyzed with 100 µL/well 0.1% (v/v) SDS/PBS. The intracellular Hoechst 33342 amount was detected by spectrofluorometry (360 nm excitation/465 nm emission wavelengths, Tecan Infinite F200 Pro, Crailsheim, Germany). The examined fluorescence subtracted by the background of non-treated cells was correlated to the protein amount quantified by the bicinchoninic acid assay (BCA, Thermo Scientific, Rockford, IL, USA) following the manufacturer’s instructions. Relative fluorescence units (RFU) were calculated as the relation of fluorescence/mg protein of MDCKII-hABCG2 cells to MDCKII-WT cells, normalized to the solvent control set as 1 and expressed as mean ± SEM. The data from the Hoechst 3342 accumulation assay (five independent experiments N = 5) were tested for normality with the Shapiro-Wilk test. Significant differences compared to the solvent control were analyzed by one-way ANOVA with the Holm-Šidák post hoc test using SigmaPlot 14.5 (Systec Software, San Jose, CA, USA). An inhibition of human ABCG2 efflux transport activity is defined as the significant difference to the solvent control (0.1% DMSO).

MDCKII-WT cells = assay: WST-1 cell proliferation assay (cytotoxicity), MDCKII-WT; type: cell-based, canine; details: WST-1, 48 h; for IC50: IC50 = 50% reduced cell viability, mean ± SEM, N = 3
Protocol: (§1) The MDCKII-hABCG2 and MDCKII-WT cells were purchased from Alfred Schinkel (Het Nederlands Kanker Instituut, Amsterdam, The Netherlands) and were cultivated in MEM (minimal essential medium) with Earle’s Salts (2.2 g/L NaHCO3, stable glutamine; Biowest, Nuaillé, France) supplemented with 10% (v/v) fetal calf serum (Life Technology, Karlsruhe, Germany), 1% (v/v) non-essential amino acids (Biowest, Nuaillé, France), 100 U/mL penicillin, and 100 µg/mL streptomycin (Biowest, Nuaillé, France). The cells were grown in a humidified atmosphere (37 °C, 5% CO2) and were sub-cultured every 3 to 4 days using 0.05% trypsin/0.02% EDTA (Biowest, Nuaillé, France), up to a total of 14 passages.
(§2) MDCKII-hABCG2 cells and their parental MDCKII-WT cells were seeded in 96-well plates (TPP, Trasadingen, Switzerland) in a density of 2 × 10^4 cells/mL and 3 × 10^4 cells/mL, respectively. After 48 h, the cells were incubated with increasing concentrations of up to 50 µM of the novel synthesized compounds, with 0.1% Triton X-100 as the positive control and solvent (0.1% DMSO) as the negative control for 48 h. Afterwards, the substance-specific cytotoxicity was determined by the water-soluble tetrazolium-1 (4-[3-(4-iodophenyl)-2-(4-nitro-phenyl)-2H-5-tetrazolio]-1,3-benzene sulfonate; WST-1) assay as previously described. The cell viability was determined by microplate reader at 450 nm (Tecan Sunrise, Crailsheim, Germany). The data of three independent experiments (N = 3) were tested for normality with the Shapiro-Wilk test. The significant differences compared to solvent control were analyzed by one-way ANOVA with the Holm-Šidák post hoc test using SigmaPlot 14.5 (Systec Software, San Jose, CA, USA). The data were normalized against the vehicle control (0.1% DMSO) and were expressed as mean ± SEM.

MDCKII-hABCG2 cells [1] = assay: WST-1 cell proliferation assay (cytotoxicity), MDCKII-hABCG2; type: cell-based, canine; details: for cell viability: MDCKII-hABCG2, highest concentration 50 µM, 48 h; for IC50: WST-1, 48 h, IC50 = 50% reduced cell viability, mean ± SEM, N = 3
Protocol: as §1, §2

MDCKII-hABCG2 cells [2] = assay: Reversal of ABCG2-mediated mitoxantrone resistance (WST-1); type: cell-based, canine; details: for Left-Shift Factor: MDCKII-hABCG2, MXN + 1 µM compound, (IC50 minus SEM of MXN alone) by (IC50 plus SEM of combination)
Protocol: Afterwards, the WST-1 assay was performed as described. […] All data were normalized against the vehicle control and were expressed as mean ± SEM, calculated from at least three independent experiments.

| Substance | intracellular Hoechst 33342 accumulation / inhibition of ABCG2-mediated Hoechst efflux (human ABCG2 transporter) | IC50 (MDCKII-WT cells) [µM] | cell viability (MDCKII-hABCG2 cells [1]) [%] | IC50 (MDCKII-hABCG2 cells [1]) [µM] | inhibition of human ABCG2 transporter in Hoechst 33342 accumulation assay (human ABCG2 transporter) | reversal of MXN resistance (MDCKII-hABCG2 cells [2]; MDCKII-hABCG2, 1 µM compound with MXN) | Left-Shift Factor (MDCKII-hABCG2 cells [2]) | decreased cell viability (MDCKII-hABCG2 cells [1]; MDCKII-hABCG2, WST-1, 48 h, up to 50 µM) | decreased cell viability (MDCKII-WT cells; MDCKII-WT) [%] |
| --- | --- | --- | --- | --- | --- | --- | --- | --- | --- |
| N-(closo-1,7-dicarbadodecaboran(12)-9-yl)-2-(4-methoxyphenyl)-quinazolin-4-amine [QCb] | did not affect the human ABCG2-mediated Hoechst efflux | 44.17 ± 0.174 | 30 | > 10 | – | – | – | – | – |
| N-(closo-1,7-dicarbadodecaboran(12)-9-yl)-6,7-dimethoxy-2-(3,4,5-trimethoxyphenyl)-quinazolin-4-amine [DMQCd] | strongest inhibition at 0.5 µM with a comparable level as the reference Ko143 | > 50 | – | > 50 | inhibited the human ABCG2 transporter | – | – | – | – |
| N-(closo-1,7-dicarbadodecaboran(12)-9-yl)-2-(3,4,5-trimethoxyphenyl)-quinazolin-4-amine [QCd] | did not affect the human ABCG2-mediated Hoechst efflux | > 50 | – | > 50 | – | – | – | – | – |
| N-(closo-1,7-dicarbadodecaboran(12)-9-yl)-2-(3,4-dimethoxyphenyl)-quinazolin-4-amine [QCc] | the only compound exhibiting inhibition within the tested concentration range | > 50 | – | > 50 | inhibited the human ABCG2 transporter | able to reverse MXN resistance | 5.4-fold | about 40% | – |
| N-(closo-1,7-dicarbadodecaboran(12)-9-yl)-2-phenylquinazolin-4-amine [QCa] | did not affect the human ABCG2-mediated Hoechst efflux | 43.23 ± 0.159 | 30 | > 10 | – | – | – | – | – |
| N-(closo-1,7-dicarbadodecaboran(12)-9-yl)-6,7-dimethoxy-2-phenyl-quinazolin-4-amine [DMQCa] | improved inhibitory potency at 1.0 µM | > 50 | – | > 50 | – | – | 4.3-fold | – | – |
| N-(closo-1,7-dicarbadodecaboran(12)-9-yl)-6,7-dimethoxy-2-(4-methoxy-phenyl)quinazolin-4-amine [DMQCb] | only marginal increases in Hoechst 33342 accumulation; also recorded: no significant inhibition | > 25 | – | > 25 | – | – | 7.2-fold | – | ~30 |
| N-(closo-1,7-dicarbadodecaboran(12)-9-yl)-6,7-dimethoxy-2-(3,4-dimethoxy-phenyl)-quinazolin-4-amine [DMQCc] | only marginal increases in Hoechst 33342 accumulation; also recorded: no significant inhibition | > 50 | – | > 50 | – | – | 9.8-fold | – | – |
